# Assay: absorption of moisturizing composition by the skin
# Type: in vivo
# Conditions: replacing 20% by weight of the avocado oil or apricot kernel oil in moisturizing compositions
# Description: The triglyceride quaternary ammonium compounds of formula I in which R is C16 -C20 alkyl are valuable additives to a range of cosmetic and toiletry compositions. They are particularly useful in moisturizing compositions containing natural triglycerides which are not easily absorbed by the skin. Examples of such natural triglycerides are avocado oil and apricot kernel oil which are the major natural triglyceride oil components of certain commercially available moisturizing lotions and creams.
smiles,measurement,value
"CCCCCCCCCCCCCCCCCC[N+](C)(C)CC(=O)OC(CC=CCCCCCCCC(=O)OCC(COC(=O)CCCCCCCC=CCC(CCCCCC)OC(=O)C[N+](C)(C)CCCCCCCCCCCCCCCCCC)OC(=O)CCCCCCCC=CCC(CCCCCC)OC(=O)C[N+](C)(C)CCCCCCCCCCCCCCCCCC)CCCCCC (stereo not shown) [Example 1, propane-1,2,3-tri[octadec-9-en-12-(oxycarbonyl-N-methylene-N,N-dimethyl-N-octadecylammonium chloride)oate]]",improvement in the absorption of the composition by the skin,significant improvement

# Source: patent publication US4857310A, “Triglyceride quaternary ammonium compounds, their preparation and use” (The Gillette Company, priority 1987, dated 1989)
